Values quoted from earlier work as cited in PMC6625762 (Bioorganic & medicinal chemistry letters, 2019).

Kd: 5 nM
Substance: NMeAla-Tle-(4S)-4-phenoxy-Pro-(R)-tetrahydronaphth-1-yl-amide
